The source of these data is ChEMBL document CHEMBL2086273, “Significant activity of ecdysteroids on the resistance to doxorubicin in mammalian cancer cells expressing the human ABCB1 transporter” (J Med Chem, 2012).

Series [1] concerns the target T1, ATP-dependent translocase ABCB1 (Homo sapiens, UniProt P08183). Description: Inhibition of human ABCB1 expressed in mouse L5178 cells assessed as 75% inhibition of cell proliferation at compound-doxorubicin ratio of 20.4:1 after 48 hrs by MTT assay. It counts as cell-based. The following applies: l5178, 48 h.
Series [2] can be described thus: Antiproliferative activity against multidrug-resistant mouse L5178 cells after 72 hrs by MTT assay. The note with it: L5178, 72 h. It counts as functional, cell-based. In general terms: Tetrazolium dyes change colour on reduction, which living cells bring about.
The target in series [3] is T1, ATP-dependent translocase ABCB1. Description: Inhibition of human ABCB1 pump expressed in mouse L5178 cells assessed as fluorescence activity ratio at 20 uM for 10 mins by flow cytometry relative to control. It counts as cell-based. The following applies: l5178, 10 min. (In general: Flow cytometry measures light scatter and fluorescence of single cells or particles in a stream.)

Series [4] has the same target. Description: Inhibition of human ABCB1 expressed in mouse L5178 cells assessed as 50% inhibition of cell proliferation at compound-doxorubicin ratio of 20.4:1 after 48 hrs by MTT assay. Format: cell-based. The following applies: l5178, 48 h.
For series [5] the target is unchanged. Description: Inhibition of human ABCB1 expressed in mouse L5178 cells assessed as 95% inhibition of cell proliferation at compound-doxorubicin ratio of 20.4:1 after 48 hrs by MTT assay. It counts as cell-based. The following applies: l5178, 48 h.
Series [6] has as its system Mus musculus. Description: Acute toxicity in CFLP mouse at 250 mg/kg, ip administered as single dose. Format: organism-based. Details: dose 250 mg/kg, route intraperitoneal; call rule not given here. The note with it: in vivo.
Series [7] is described as follows: Half life of the compound in hydrochloric acid solution at pH 1.48 at 1 mg/ml. Format: physicochemical.
The subject of series [8] is Mus musculus. In words: Acute toxicity in CFLP mouse at 250 mg/kg, ip co-administered with […] doxorubicin after 48 hrs. Format: organism-based. Details: dose 250 mg/kg, route intraperitoneal. The note with it: in vivo.
Series [9] can be described thus: Drug degradation of the compound in hydrochloric acid solution at pH 1.48 assessed as 20E 20,22-acetonide formation at 1 mg/ml. The following applies: buffer. Format: physicochemical.

T1 sequence (P08183 whole entry): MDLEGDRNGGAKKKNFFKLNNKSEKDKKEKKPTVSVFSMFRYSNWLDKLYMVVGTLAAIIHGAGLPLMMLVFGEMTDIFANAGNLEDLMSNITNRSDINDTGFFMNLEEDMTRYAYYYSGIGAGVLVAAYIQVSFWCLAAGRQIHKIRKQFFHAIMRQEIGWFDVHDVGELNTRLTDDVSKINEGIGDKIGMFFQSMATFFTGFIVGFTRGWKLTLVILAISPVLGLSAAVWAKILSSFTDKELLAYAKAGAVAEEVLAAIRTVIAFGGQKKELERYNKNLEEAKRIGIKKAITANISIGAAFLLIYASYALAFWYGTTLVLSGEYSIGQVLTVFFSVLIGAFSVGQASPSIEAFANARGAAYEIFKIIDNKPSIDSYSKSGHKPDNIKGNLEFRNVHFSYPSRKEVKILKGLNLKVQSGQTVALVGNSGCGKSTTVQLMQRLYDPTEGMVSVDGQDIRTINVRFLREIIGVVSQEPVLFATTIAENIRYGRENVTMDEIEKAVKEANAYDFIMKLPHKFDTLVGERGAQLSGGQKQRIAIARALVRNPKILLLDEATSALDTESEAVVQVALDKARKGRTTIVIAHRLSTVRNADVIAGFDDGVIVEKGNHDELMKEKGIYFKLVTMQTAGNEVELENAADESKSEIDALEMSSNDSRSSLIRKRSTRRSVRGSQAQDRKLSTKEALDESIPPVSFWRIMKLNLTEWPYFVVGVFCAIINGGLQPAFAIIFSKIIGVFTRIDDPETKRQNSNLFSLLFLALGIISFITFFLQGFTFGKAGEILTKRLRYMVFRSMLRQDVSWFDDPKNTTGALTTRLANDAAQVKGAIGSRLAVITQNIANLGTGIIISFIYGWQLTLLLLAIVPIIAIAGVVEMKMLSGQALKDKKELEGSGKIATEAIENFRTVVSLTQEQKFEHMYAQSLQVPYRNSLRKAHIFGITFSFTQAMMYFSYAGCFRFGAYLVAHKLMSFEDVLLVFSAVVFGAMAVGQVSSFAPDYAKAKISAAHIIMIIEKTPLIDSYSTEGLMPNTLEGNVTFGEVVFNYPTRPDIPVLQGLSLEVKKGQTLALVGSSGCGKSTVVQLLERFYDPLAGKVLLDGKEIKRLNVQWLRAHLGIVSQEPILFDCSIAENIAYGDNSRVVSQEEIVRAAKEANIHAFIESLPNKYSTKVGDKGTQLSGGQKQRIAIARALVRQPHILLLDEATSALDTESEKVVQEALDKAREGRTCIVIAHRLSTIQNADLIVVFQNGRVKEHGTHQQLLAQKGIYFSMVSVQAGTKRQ

For orientation: IC50 means the concentration that inhibits the measured activity by half. Higher therefore signals lower potency. Consider `CC(C)CC[C@H](O)[C@](C)(O)[C@H]1CC[C@@]2(O)C3=CC(=O)[C@@H]4C[C@@H](O)[C@@H](O)C[C@]4(C)[C@H]3[C@H](O)C[C@]12C` [AJUGASTERONE C], for which the “fractional inhibitory concentration index (FICI)” value in series [1] is 1.66; in [4], 1.79; in series [5], 1.88. Moreover, in series [2], the IC50 was 30 µM. Also, in series [3], the Ratio is given as 1.13.
A word on the half-life: it is the time in which the quantity being followed falls by half. A higher half-life goes with slow loss. For the molecule `CC(C)(O)CC[C@H]1OC(C)(C)O[C@]1(C)[C@H]1CC[C@@]2(O)C3=CC(=O)[C@@H]4C[C@H]5OC(C)(C)O[C@H]5C[C@]4(C)[C@H]3CC[C@]12C`, the “fractional inhibitory concentration index (FICI)” value in [1] was determined as 0.14; in series [4], 0.28; in [5], 0.073. Also, the Activity entry in the series on Mus musculus [6] and in the series with Mus musculus [8] was “Non-toxic” each time. Moreover, in series [7], the half-life at 1 mg/ml was 7.3 min. In addition, the Ratio in series [3] is reported as 19.13. In addition, in series [9], the Drug degradation entry is listed as “Active”.
